Values of other authors as cited in patent US20060099233A1, “Granular formulation of neem seed extract and its process thereof” (E.I.D. Parry (India) Limited, priority 2004, published 2006).
Read-outs that look alike come from different tables or passages of the source.

Settings: 25 days at 29±1° C.

For `C/C=C(\C)C(=O)O[C@H]1C[C@@H](OC(C)=O)[C@@]2(C(=O)OC)CO[C@H]3[C@@H](O)[C@@](C)([C@]45O[C@@]4(C)[C@@H]4C[C@H]5O[C@@H]5OC=C[C@@]54O)[C@H]4[C@]1(CO[C@]4(O)C(=O)OC)[C@@H]32` [azadirachtin A], the “degradation of azadirachtin A” value (in ethanol and water) is listed as “about 85%”, the “degradation of azadirachtin A” value (in methanol and acetone) is listed as 50% and the “degradation of azadirachtin A” value (in methylene chloride, carbon tetrachloride and chloroform) is listed as 75-80%.
